IC50 data for 25 compounds are collected here from patent US20140255392A1 (BAYER INTELLECTUAL PROPERTY GMBH, priority 2011, published 2014).

Usually pIC50 stands for −log10 of the IC50, conventionally taken in molar units.

The experiment addresses T1, human kinase Mps-1 (Homo sapiens, UniProt P33981).
T1 construct: N-terminally GST-tagged human full length recombinant Mps-1 kinase; GST (N); purchased Invitrogen, Karslruhe, Germany PV4071
T1 sequence (P33981 1-857): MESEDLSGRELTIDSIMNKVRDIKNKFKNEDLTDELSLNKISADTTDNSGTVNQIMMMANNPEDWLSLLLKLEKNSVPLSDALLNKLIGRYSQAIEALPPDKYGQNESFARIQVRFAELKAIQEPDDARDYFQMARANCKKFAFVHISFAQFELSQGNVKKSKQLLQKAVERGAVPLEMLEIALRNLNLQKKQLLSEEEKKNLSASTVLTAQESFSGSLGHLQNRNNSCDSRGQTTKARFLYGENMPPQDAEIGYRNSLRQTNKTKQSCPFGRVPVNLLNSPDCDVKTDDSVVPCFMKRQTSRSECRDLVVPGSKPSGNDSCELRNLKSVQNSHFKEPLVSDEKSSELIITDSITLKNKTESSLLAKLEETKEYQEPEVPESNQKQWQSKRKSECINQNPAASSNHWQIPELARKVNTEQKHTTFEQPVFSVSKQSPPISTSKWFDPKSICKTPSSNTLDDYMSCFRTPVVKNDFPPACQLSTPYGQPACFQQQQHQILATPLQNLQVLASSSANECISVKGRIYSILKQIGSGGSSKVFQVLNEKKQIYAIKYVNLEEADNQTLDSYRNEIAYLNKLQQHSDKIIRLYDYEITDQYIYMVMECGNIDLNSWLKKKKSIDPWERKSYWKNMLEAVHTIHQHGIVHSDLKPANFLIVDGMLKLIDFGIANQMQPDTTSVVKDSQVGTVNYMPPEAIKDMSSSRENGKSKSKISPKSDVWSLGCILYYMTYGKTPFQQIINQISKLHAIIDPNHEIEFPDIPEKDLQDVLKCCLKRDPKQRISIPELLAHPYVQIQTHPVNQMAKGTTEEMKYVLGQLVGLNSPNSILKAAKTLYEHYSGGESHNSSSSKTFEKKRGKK
Kind of experiment: Mps-1 kinase assay (TR-FRET). It is filed as biochemical. The following applies: N-terminally GST-tagged human full length recombinant Mps-1; 10 μM ATP; 1 μM peptide substrate; 60 min at 22° C. The procedure, abridged:
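GST-tagged full-length recombinant Mps-1 at about 1 nM final, adjusted per lot for linear range, phosphorylated a biotinylated peptide. Product bound Eu-anti-phospho(Ser/Thr) antibody over 1 h at 22° C and was read by TR-FRET to streptavidin-XLent. Compounds scored for kinase inhibition.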

pIC50: −log10 of the molar value.

As to `COCCNc1cc(Oc2cccc(F)c2F)cn2c(-c3ccc(C(=O)NC4CC4)c(C)c3)cnc12` [Example 173, N-cyclopropyl-4-{6-(2,3-difluorophenoxy)-8-[(2-methoxyethyl)amino]imidazo[1,2-a]pyridin-3-yl}-2-methylbenzamide], the pIC50 was 8.09.
On to `Cc1cc(-c2cnc3c(NCCC(F)(F)F)cc(-c4ccncc4)cn23)ccc1C(=O)NC1CC1` [Example 2-2, N-cyclopropyl-2-methyl-4-{6-(pyridin-4-yl)-8-[(3,3,3-trifluoropropyl)amino]imidazo [1,2-a]pyridin-3-yl} benzamide], for which the pIC50 is 9.52.
The figure for `C#Cc1cc(NCCC(F)(F)F)c2ncc(-c3ccc(C(=O)NCC)c(C)c3)n2c1` [Example 15, N-ethyl-4-{6-ethynyl-8-[(3,3,3-trifluoropropyl)amino]imidazo[1,2-a]pyridin-3-yl}-2-methylbenzamide] is 7.26; for `CNC(=O)c1ccc(-c2cnc3c(NCCC(F)(F)F)cc(Oc4cccc(OC)c4)cn23)cc1C` [Example 55, 4-{6-(3-Methoxyphenoxy)-8-[(3,3,3-trifluoropropyl)amino]imidazo[1,2-a]pyridin-3-yl}-N,2-dimethylbenzamide] it is 8.54.
For `Cc1cc(-c2cnc3c(NCCC(F)(F)F)cc(Oc4cccc(O)c4)cn23)ccc1C(=O)NC1(C)CC1` [Example 137, 4-{6-(3-Hydroxyphenoxy)-8-[(3,3,3-trifluoropropyl)amino]imidazo[1,2-a]pyridin-3-yl}-2-methyl-N-(1-methylcyclopropyl)benzamide], the pIC50 is 8.66.
As to `CNC(=O)c1ccc(-c2cnc3c(NCCC(F)(F)F)cc(-c4ccccc4O)cn23)cc1C` [Example 133, 4-{6-(2-Hydroxyphenyl)-8-[(3,3,3-trifluoropropyl)amino]imidazo[1,2-a]pyridin-3-yl}-N,2-dimethylbenzamide], the negative-log IC50 (pIC50) was 7.90.
The figure for `Cc1cc(-c2cnc3c(NCCC(F)(F)F)cc(-c4ccncc4)cn23)ccc1C(=O)NC1(C#N)CC1` [Example 91, N-(1-cyanocyclopropyl)-2-methyl-4-{6-(pyridin-4-yl)-8-[(3,3,3-trifluoropropyl)amino]imidazo[1,2-a]pyridin-3-yl}benzamide] is 7.69.
With `C=Cc1cc(NCCC(F)(F)F)c2ncc(-c3ccc(C(=O)N[C@H]4C[C@@H]4F)c(C)c3)n2c1` (relative stereo) [Example 97, N-[rel-(1S,2S)-2-fluorocyclopropyl]-2-methyl-4-{8-[(3,3,3-trifluoropropyl)amino]-6-vinylimidazo[1,2-a]pyridin-3-yl}benzamide], the pIC50 was 7.32.
To `CNC(=O)c1ccc(-c2cc(NCCC(F)(F)F)c3ncc(-c4ccc(C(=O)NC5CC5)c(C)c4)n3c2)cc1C` [Example 147, 4-{3-[4-(cyclopropylcarbamoyl)-3-methylphenyl]-8-[(3,3,3-trifluoropropyl)amino]imidazo[1,2-a]pyridin-6-yl}-N,2-dimethylbenzamide] belongs 9.30; to `COc1ncc(Oc2cc(NCCC(F)(F)F)c3ncc(-c4ccc(C(=O)NC5CC5)c(C)c4)n3c2)cc1F` [Example 178, N-cyclopropyl-4-{6-[(5-fluoro-6-methoxypyridin-3-yl)oxy]-8-[(3,3,3-trifluoropropyl)amino]imidazo[1,2-a]pyridin-3-yl}-2-methylbenzamide], 8.66; to `COc1ccc(Oc2cc(NCCC(F)(F)F)c3ncc(-c4ccc(C(=O)N[C@H]5C[C@@H]5C)c(C)c4)n3c2)cc1F` (relative stereo) [Example 125, 4-{6-(3-fluoro-4-methoxyphenoxy)-8-[(3,3,3-trifluoropropyl)amino]imidazo[1,2-a]pyridin-3-yl}-2-methyl-N-[rel-(1S,2S)-2-methylcyclopropyl]benzamide], 8.70.
The figure for `CCNC(=O)c1ccc(-c2cnc3c(NCCC(F)(F)F)cc(CC)cn23)cc1C` [Example 101, N-ethyl-4-{6-ethyl-8-[(3,3,3-trifluoropropyl)amino]imidazo[1,2-a]pyridin-3-yl}-2-methylbenzamide] is 6.91; for `Cc1cc(-c2cnc3c(NCCC(F)(F)F)cc(Oc4cccc(F)c4)cn23)ccc1C(=O)N[C@@H]1C[C@H]1C` (relative stereo) [Example 48, Rel-4-{6-(3-fluorophenoxy)-8-[(3,3,3-trifluoropropyl)amino]imidazo[1,2-a]pyridin-3-yl}-2-methyl-N-[(1R,2R)-2-methylcyclopropyl]benzamide] it is 8.68; for `CNC(=O)c1ccc(-c2cnc3c(NCCC(F)(F)F)cc(Oc4cccc(F)c4)cn23)cc1C` [Example 8, 4-{6-(3-Fluorophenoxy)-8-[(3,3,3-trifluoropropyl)amino]imidazo[1,2-a]pyridin-3-yl}-N,2-dimethylbenzamide] it is 8.47.
On to `CNC(=O)c1ccc(-c2cnc3c(NCCC(F)(F)F)cc(Oc4cc(F)ccc4C)cn23)cc1C` [Example 25, 4-{6-(5-Fluoro-2-methylphenoxy)-8-[(3,3,3-trifluoropropyl)amino]imidazo[1,2-a]pyridin-3-yl}-N,2-dimethylbenzamide], for which the pIC50 is 8.54.
The figure for `COCCNc1cc(Oc2ccc(F)c(F)c2)cn2c(-c3ccc(C(=O)NC4CC4)c(C)c3)cnc12` [Example 171, N-cyclopropyl-4-{6-(3,4-difluorophenoxy)-8-[(2-methoxyethyl)amino]imidazo[1,2-a]pyridin-3-yl}-2-methylbenzamide] is 6.94; for `Cc1cc(-c2cnc3c(NCCC(F)(F)F)cc(Oc4ccc(OC(F)(F)F)c(F)c4)cn23)ccc1C(=O)NC1CC1` [Example 83, N-cyclopropyl-4-{6-[3-fluoro-4-(trifluoromethoxy)phenoxy]-8-[(3,3,3-trifluoropropyl)amino]imidazo[1,2-a]pyridin-3-yl}-2-methylbenzamide] it is 7.16; for `CCNC(=O)c1ccc(-c2cnc3c(NCCC(F)(F)F)cc(Oc4ccc(O)c(F)c4)cn23)cc1C` [Example 131, N-ethyl-4-{6-(3-fluoro-4-hydroxyphenoxy)-8-[(3,3,3-trifluoropropyl)amino]imidazo[1,2-a]pyridin-3-yl}-2-methylbenzamide] it is 8.85.
As for `CCNC(=O)c1ccc(-c2cnc3c(NCCC(F)(F)F)cc(Oc4cccc(OC)c4)cn23)cc1C` [Example 56, N-ethyl-4-{6-(3-methoxyphenoxy)-8-[(3,3,3-trifluoropropyl)amino]imidazo[1,2-a]pyridin-3-yl}-2-methylbenzamide], the negative-log IC50 (pIC50) is 8.11.
The figure for `Cc1cc(-c2cnc3c(NCCC(F)(F)F)cc(Oc4cccc(F)c4)cn23)ccc1C(=O)NC1(C)CC1` [Example 11, 4-{6-(3-Fluorophenoxy)-8-[(3,3,3-trifluoropropyl)amino]imidazo[1,2-a]pyridin-3-yl}-2-methyl-N-(1-methylcyclopropyl)benzamide] is 8.42; for `CNC(=O)c1ccc(-c2cnc3c(NCCC(F)(F)F)cc(-c4ccc(C(=O)NC5(C)CC5)c(C)c4)cn23)cc1C` [Example 157, 2-methyl-N-(1-methylcyclopropyl)-4-{3-[3-methyl-4-(methylcarbamoyl)phenyl]-8-[(3,3,3-trifluoropropyl)amino]imidazo[1,2-a]pyridin-6-yl}benzamide] it is 7.82.
To `Cc1cc(-c2cnc3c(NCCC(F)(F)F)cc(Oc4cccc(Cl)c4)cn23)ccc1C(=O)NC1(C#N)CC1` [Example 37, 4-{6-(3-chlorophenoxy)-8-[(3,3,3-trifluoropropyl)amino]imidazo[1,2-a]pyridin-3-yl}-N-(1-cyanocyclopropyl)-2-methylbenzamide] belongs 7.64; to `C/C=C/c1cc(NCCC(F)(F)F)c2ncc(-c3ccc(C(=O)NC)c(C)c3)n2c1` [Example 112, N,2-dimethyl-4-{6-[(1E)-prop-1-en-1-yl]-8-[(3,3,3-trifluoropropyl)amino]imidazo[1,2-a]pyridin-3-yl}benzamide], 7.66; to `CNC(=O)c1ccc(-c2cnc3c(NCCC(F)(F)F)cc(-c4ccc(C(=O)NC5(C#N)CC5)c(C)c4)cn23)cc1C` [Example 156, 4-(6-{4-[(1-cyanocyclopropyl)carbamoyl]-3-methylphenyl}-8-[(3,3,3-trifluoropropyl)amino]imidazo[1,2-a]pyridin-3-yl)-N,2-dimethylbenzamide], 7.67.
In the case of `COc1ccccc1-c1cc(NCCC(F)(F)F)c2ncc(-c3ccc(C(=O)NC4(C)CC4)c(C)c3)n2c1` [Example 80], the pIC50 was 7.45.
